According to patent US20030220386A1, “Delta 1-pyrrolines for use as pesticides” (priority 2000, published 2003):
Read-outs that look alike come from different tables or passages of the source.

Tests used:
[1] = logP determination by HPLC (reversed-phase C 18), EEC Directive 79/831 Annex V.A8; type: physicochemical; settings: 43° C.
Procedure: The logP values given in the tables and preparation examples above are determined in accordance with EEC Directive 79/831 Annex V.A8 by HPLC (High Performance Liquid Chromatography) using a reversed-phase column (C 18). Temperature: 43° C.
In the acidic range, the determination is carried out at pH 2.3 using the mobile phases 0.1% aqueous phosphoric acid and acetonitrile; linear gradient from 10% acetonitrile to 90% acetonitrile.
In the neutral range, the determination is carried out at pH 7.5 using the mobile phases 0.01 molar aqueous phosphate buffer solution and acetonitrile; linear gradient from 10% acetonitrile to 90% acetonitrile.
Calibration is carried out using unbranched alkan-2-ones (of 3 to 16 carbon atoms) with known logP values (determination of the logP values by the retention times using linear interpolation between two successive alkanones).

[2] = test system: larvae of the armyworm (Spodoptera frugiperda); assay: Spodoptera frugiperda test; type: in vivo; settings: 1000 ppm, cabbage leaves dipped
[3] = test system: larvae of the mustard beetle (Phaedon cochleariae); assay: Phaedon larvae test; settings: 1000 ppm, cabbage leaves dipped
[4] = test system: peach aphid (Myzus persicae); assay: Myzus test; type: in vivo; settings: cabbage leaves dipped
[5] = test system: greenhouse red spider mite (Tetranychus urticae); assay: Tetranychus test (OP-resistant/dip treatment); type: in vivo; settings: 100 ppm, bean plants dipped
Procedure: After the desired period of time, the activity in % is determined.

Lucilia cuprina larvae = assay: Blowfly larvae test/Development-inhibitory action; type: in vivo; settings: 100 ppm; mortality of the larvae after 48 hours
Procedure: (§1) 20 mg of active compound are dissolved in one ml of dimethyl sulphoxide. To prepare a suitable formulation, the solution of active compound is diluted with water to the concentration desired in each case.
About 20 Lucilia cuprina larvae are introduced into a test tube which contains about 1 cm^3 of horsemeat and 0.5 ml of the preparation of active compound to be tested. The activity of the preparation of active compound is determined after 48 hours as the mortality of the larvae in %.
The test tubes are then transferred into a beaker whose bottom is covered with sand. After a further 12 days, the test tubes are removed and the pupae and flies are counted. The development-inhibitory action is stated as inhibition of hatching in % (ratio of pupae to flies that have hatched) after 1.5 times the development period of an untreated control.

[6] = test system: cotton aphid (Aphis gossypii); assay: Aphis gossypii test; type: in vivo; settings: 200 ppm, cotton leaves dipped
[7] = test system: Amblyomma hebraeum nymphs; assay: Test with polyphagous tick nymphs, dip treatment; type: in vivo; settings: nymphs immersed for 1 minute; after 4 weeks
Procedure: as §1
10 nymphs which have sucked themselves full are immersed for 1 minute into the preparation of active compound to be tested. The animals are transferred to Petri dishes (Ø 9.5 cm) fitted with filter discs and covered. After 4 weeks of storage in a climatized room, the mortality is determined.
100% means that none of the animals has undergone normal ecdysis. 0% means that all animals have undergone ecdysis.

[8] = test system: Heliothis virescens caterpillars; assay: Heliothis virescens test; type: in vivo; settings: soya bean shoots dipped
[9] = test system: caterpillars of the diamondback moth (Plutella xylostella); assay: Plutella test; type: in vivo; settings: cabbage leaves dipped
[10] = test system: larvae of the armyworm (Spodoptera exigua); assay: Spodoptera exigua test; type: in vivo; settings: 1000 ppm, cabbage leaves dipped
Meloidogyne incognita = assay: Meloidogyne test; type: in vivo; settings: 20 ppm, nematicidal action by formation of galls on lettuce roots
Procedure: Vessels are filled with sand, solution of active compound, Meloidogyne incognita egg/larvae suspension and lettuce seeds. The lettuce seeds germinate and the plants develop. On the roots, galls are formed.
After the desired period of time, the nematicidal action is determined in % by the formation of galls. 100% means that no galls were found; 0% means that the number of galls on the treated plants corresponds to that of the untreated control.

[11] = reversed-phase C18 HPLC column, pH 2.3, 0.1% aqueous phosphoric acid/acetonitrile, read-out: log P (pH 2.3)
[12] = pH 2.3, 0.1% aqueous phosphoric acid/acetonitrile, read-out: log P (pH 2.3)

With CN(C)S(=O)(=O)Oc1ccc(-c2ccc(C3CCC(c4c(F)cccc4F)=N3)cc2)cc1 (stereo not drawn) [I-4, 4′-[5-(2,6-Difluorophenyl)-3,4-dihydro-2H-pyrrol-2-yl]-1,1′-biphenyl-4-yl dimethylsulphamate] the chromatographic logP [1, 11] was 3.06, the “Kill rate in % after 6 days” value [2] was 100% and the “Kill rate in % after 7 days” value [3] was 100%.
Work on CN(C)S(=O)(=O)Oc1ccc(-c2ccccc2)cc1 [XIII-2, 1,1′-biphenyl-4-yl dimethylsulphamate] yielded a chromatographic logP [1, 12] of 3.51 and a melting point of 105 to 107 °C.
With O=S(=O)(Oc1ccc(C2CCC(c3c(F)cccc3F)=N2)cc1)c1ccc(OC(F)(F)F)cc1 (stereo not drawn) [I-6, 4-[5-(2,6-difluorophenyl)-3,4-dihydro-2H-pyrrol-2-yl]phenyl 4-(trifluoromethoxy)benzenesulphonate] the chromatographic logP [1, 11] was 3.83, the “Kill rate in % after 6 days” value ([4]; 1000 ppm) was 95% and the “Kill rate in % after 7 days” value [5] was 98%. For the same molecule, the “Action in % after 48 hours” value (Lucilia cuprina larvae) was 90% and the “Kill rate in % after 7 days” value [3] was 90%.
With O=S(=O)(Oc1ccc(-c2ccc(C3CCC(c4c(F)cccc4F)=N3)cc2)cc1)C(F)(F)C(F)(F)C(F)(F)C(F)(F)F (stereo not drawn) [I-3, 4′-[5-(2,6-Difluorophenyl)-3,4-dihydro-2H-pyrrol-2-yl]-1,1′-biphenyl-4-yl 1,1,2,2,3,3,4,4,4-nonafluoro-1-butanesulphonate] the chromatographic logP [1, 12] was 5.57, the “Kill rate in % after 6 days” value [2] was 100% and the “Kill rate in % after 7 days” value [5] was 98%. For the same molecule, the “Kill rate in % after 7 days” value [3] was 100%.
In the case of CN(C)S(=O)(=O)Oc1ccc(-c2ccccc2C2CCC(=O)N2)cc1 (single isomer, unassigned; isomer 2) [“ortho” isomer, 2′-(5-oxo-2-pyrrolidinyl)-1,1′-biphenyl-4-yl dimethylsulphamate], the chromatographic logP [1, 11] is reported as 2.28.
In the case of CN(C)S(=O)(=O)Oc1ccc(-c2ccc(C(CCC(=O)c3c(F)cccc3F)NC(=O)OC(C)(C)C)cc2)cc1 (stereo not drawn) [II-4, tert-Butyl 4-(2,6-difluorophenyl)-1-(4′-{[(dimethylamino)sulphonyl]oxy}-1,1′-biphenyl-4-yl)-4-oxobutylcarbamate], the chromatographic logP [1, 11] is reported as 4.25.
CN(C)S(=O)(=O)Oc1ccc(-c2ccc(C3CCC(=O)N3)cc2)cc1 (stereo not drawn) [IX-b-1, 4′-(5-oxo-2-pyrrolidinyl)-1,1′-biphenyl-4-yl dimethylsulphamate] showed a chromatographic logP [1, 11] of 2.23.
Molecule CC(C)(C)OC(=O)NC(CCC(=O)c1c(F)cccc1F)c1ccc(OS(=O)(=O)C(F)(F)F)cc1 (stereo not drawn) [II-1, 4-[1-[(tert-butoxycarbonyl)amino]-4-(2,6-difluorophenyl)-4-oxobutyl]phenyl trifluoromethanesulphonate] has a chromatographic logP [1, 12] of 4.38.
Molecule CN(C)S(=O)(=O)Oc1ccc(-c2ccc(C3CCC(=O)N3C(=O)OC(C)(C)C)cc2)cc1 (stereo not drawn) [VII-4, tert-Butyl 2-(4′-{[(dimethylamino)sulphonyl]oxy}-1,1′-biphenyl-4-yl)-5-oxo-1-pyrrolidinecarboxylate] has a chromatographic logP [1, 11] of 3.31.
With CC(C)(C)OC(=O)N1C(=O)CC[C@@H]1c1ccc(OS(=O)(=O)C(F)(F)F)cc1 [VII-2, tert-butyl 2-oxo-(5R)-5-(4-{[(trifluoromethyl)sulphonyl]oxy}phenyl)-1-pyrrolidinecarboxylate] the chromatographic logP [1, 11] was 3.31.
Molecule CC1(C)OB(c2ccc(C3CCC(c4c(F)cccc4F)=N3)cc2)OC1(C)C (stereo not drawn) [V-1, 5-(2,6-difluorophenyl)-2-[4-(4,4,5,5-tetramethyl-1,3,2-dioxaborolan-2-yl)phenyl]-3,4-dihydro-2H-pyrrole] has a chromatographic logP ([1]; reversed-phase C18 HPLC column, pH 7.5, 0.01 molar aqueous phosphate buffer/acetonitrile, read-out: log P (pH 7.5)) of 4.46.
For O=S(=O)(Oc1ccc(-c2ccccc2)cc1)C(F)(F)C(F)(F)C(F)(F)C(F)(F)F [XIII-1, 1,1′-biphenyl-4-yl 1,1,2,2,3,3,4,4,4-nonafluoro-1-butanesulphonate], the chromatographic logP [1, 12] was 5.81.
Work on CC(C)(C)OC(=O)N1C(=O)CCC1c1ccc(-c2ccc(OS(=O)(=O)C(F)(F)C(F)(F)C(F)(F)C(F)(F)F)cc2)cc1 (stereo not drawn) [VII-3, tert-Butyl 2-(4′-{[(1,1,2,2,3,3,4,4,4-nonafluorobutyl)sulphonyl]oxy}-1,1′-biphenyl-4-yl)-5-oxo-1-pyrrolidinecarboxylate] yielded a chromatographic logP [1, 12] of 5.44.
CC(C)(C)OC(=O)N1C(=O)CCC1c1ccc(OS(=O)(=O)C(F)(F)F)cc1 (stereo not drawn) [VII-1, tert-butyl 2-oxo-5-(4-{[(trifluoromethyl)-sulphonyl]oxy}phenyl)-1-pyrrolidinecarboxylate] gave a chromatographic logP [1, 11] of 3.31.
With O=S(=O)(Oc1ccc(C2CCC(c3c(F)cccc3F)=N2)cc1)C(F)(F)F (stereo not drawn) [I-1, 4-[5-(2,6-difluorophenyl)-3,4-dihydro-2H-pyrrol-2-yl]phenyl trifluoromethanesulphonate] the chromatographic logP [1, 11] was 3.49, the “Kill rate in % after 6 days” value [6] was 95% and the “Kill rate in % after 6 days” value ([4]; 20 ppm) was 95%. For the same molecule, the “Kill rate in % after 7 days” value [5] was 95%, the “Action in % after 48 hours” value (Lucilia cuprina larvae) was 100% and the “activity (mortality / no normal ecdysis)” value [7] was “good activity”. The “Kill rate in % after 7 days” value [3] was 100%.
With O=C1CCC(c2ccc(-c3ccc(OS(=O)(=O)C(F)(F)C(F)(F)C(F)(F)C(F)(F)F)cc3)cc2)N1 (stereo not drawn) [IX-b-2, 4′-(5-Oxo-2-pyrrolidinyl)-1,1′-biphenyl-4-yl 1,1,2,2,3,3,4,4,4-nonafluoro-1-butanesulphonate] the chromatographic logP [1, 12] was 4.21.
With O=S(=O)(Oc1ccc(-c2ccc(C3CCC(c4c(F)cccc4F)=N3)cc2)cc1)C(F)(F)F (stereo not drawn) [I-7, 4′-[5-(2,6-difluorophenyl)-3,4-dihydro-2H-pyrrol-2-yl]-1,1′-biphenyl-4-yl trifluoromethanesulphonate] the chromatographic logP [1, 11] was 4.15, the “Kill rate in % after 6 days” value ([8]; 1000 ppm) was 100% and the “Kill rate in % after 6 days” value ([9]; 1000 ppm) was 100%. For the same molecule, the “Kill rate in % after 6 days” value [10] was 100%, the “Kill rate in % after 6 days” value [2] was 100% and the “Kill rate in % after 7 days” value [5] was 98%. For the same molecule, the “Action in % after 48 hours” value (Lucilia cuprina larvae) was 100%, the “activity (mortality / no normal ecdysis)” value [7] was “good activity” and the “Kill rate in % after 7 days” value [3] was 100%.
CC(C)(C)OC(=O)NC(CCC(=O)c1c(F)cccc1F)c1ccc(-c2ccc(OS(=O)(=O)C(F)(F)C(F)(F)C(F)(F)C(F)(F)F)cc2)cc1 (stereo not drawn) [II-3, 4′-[1-[(tert-Butoxycarbonyl)amino]-4-(2,6-difluorophenyl)-4-oxobutyl]-1,1′-biphenyl-4-yl 1,1,2,2,3,3,4,4,4-nonafluoro-1-butanesulphonate] showed a chromatographic logP [1, 12] of 6.05.
In the case of O=S(=O)(Oc1ccc(-c2ccc([C@H]3CCC(c4c(F)cccc4F)=N3)cc2)cc1)C(F)(F)F [I-5, 4′-[(2R)-5-(2,6-difluorophenyl)-3,4-dihydro-2H-pyrrol-2-yl]-1,1′-biphenyl-4-yl trifluoromethanesulphonate], the chromatographic logP [1, 11] is reported as 4.27, the “Kill rate in % after 6 days” value ([8]; 5 ppm) is reported as 100% and the “Kill rate in % after 14 days” value (Meloidogyne incognita) is reported as 100%. For the same molecule, the “Kill rate in % after 6 days” value ([9]; 5 ppm) was 100%, the “Kill rate in % after 6 days” value [2] was 100% and the “Action in % after 48 hours” value (Lucilia cuprina larvae) was 100%. The “activity (mortality / no normal ecdysis)” value [7] was “good activity” and the “Kill rate in % after 7 days” value [3] was 100%.
Molecule CC(C)(C)OC(=O)N[C@H](CCC(=O)c1c(F)cccc1F)c1ccc(OS(=O)(=O)C(F)(F)F)cc1 [II-2, 4-[(1R)-1-[(tert-Butoxycarbonyl)amino]-4-(2,6-difluorophenyl)-4-oxobutyl]phenyl trifluoromethanesulphonate] has a chromatographic logP [1, 12] of 4.37.
